Assay results: PubChem BioAssay (NCI)
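Grown in 96-well plates, cells were treated for 48 hours with each compound at five concentrations. Insufficient inhibition: endpoint recorded as highest concentration tested. GI50 = concentration required for 50% inhibition of growth. Definition used: TGI = concentration required for complete inhibition of growth.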

Experiments:
Assay in all cases: growth of human tumour cells (NCI), 48 h
786-0 renal = test system: 786-0 renal
A498 renal = test system: A498 renal
A549 NSCLC = test system: A549 NSCLC
ACHN renal = test system: ACHN renal
BT-549 breast = test system: BT-549 breast
CAKI-1 renal = test system: CAKI-1 renal
CCRF-CEM leukemia = test system: CCRF-CEM leukemia
COLO 205 colon = test system: COLO 205 colon
DU-145 prostate = test system: DU-145 prostate
EKVX NSCLC = test system: EKVX NSCLC
HCC-2998 colon = test system: HCC-2998 colon
HCT-15 colon = test system: HCT-15 colon
HL-60(TB) leukemia = test system: HL-60(TB) leukemia
HOP-62 NSCLC = test system: HOP-62 NSCLC
HOP-92 NSCLC = test system: HOP-92 NSCLC
HS 578T breast = test system: HS 578T breast
HT29 colon = test system: HT29 colon
IGROV1 ovarian = test system: IGROV1 ovarian
K-562 leukemia = test system: K-562 leukemia
KM12 colon = test system: KM12 colon
LOX IMVI melanoma = test system: LOX IMVI melanoma
M14 melanoma = test system: M14 melanoma
MALME-3M melanoma = test system: MALME-3M melanoma
MCF7 breast = test system: MCF7 breast
MDA-MB-231 breast = test system: MDA-MB-231 breast
MDA-MB-435 = test system: MDA-MB-435
MOLT-4 leukemia = test system: MOLT-4 leukemia
NCI-H226 lung = test system: NCI-H226 lung

`CNC[C@@H](NC(=O)c1ccc(-c2nc([C@H]3CC[C@H](O)[C@@H](F)C3)cnc2N)cc1F)c1cc(F)cc(Br)c1` showed a GI50 (786-0 renal) of 14 µM, a TGI (786-0 renal) of 29.5 µM and a GI50 (A498 renal) of 13.1 µM. For the same compound, the TGI (A498 renal) was 26.7 µM, the GI50 (A549 NSCLC) was 14.3 µM and the TGI (A549 NSCLC) was 30.1 µM. For the same compound, the GI50 (ACHN renal) was 15 µM, the TGI (ACHN renal) was 29.1 µM and the GI50 (BT-549 breast) was 11.2 µM. It also gave a TGI (BT-549 breast) of 25.3 µM, a GI50 (CAKI-1 renal) of 11.6 µM and a TGI (CAKI-1 renal) of 28.3 µM. The GI50 (CCRF-CEM leukemia) was 16 µM, the TGI (CCRF-CEM leukemia) was 39.1 µM and the GI50 (COLO 205 colon) was 13 µM. For the same compound, the TGI (COLO 205 colon) was 27 µM, the GI50 (DU-145 prostate) was 17.2 µM and the TGI (DU-145 prostate) was 32.8 µM. The GI50 (EKVX NSCLC) was 16.1 µM, the TGI (EKVX NSCLC) was 33.2 µM and the GI50 (HCC-2998 colon) was 17.3 µM. The TGI (HCC-2998 colon) was 31.8 µM, the GI50 (HCT-15 colon) was 16.5 µM and the TGI (HCT-15 colon) was 31.8 µM. It also gave a GI50 (HL-60(TB) leukemia) of 13.6 µM, a TGI (HL-60(TB) leukemia) of 34.2 µM and a GI50 (HOP-62 NSCLC) of 14.3 µM. It also gave a TGI (HOP-62 NSCLC) of 28.7 µM, a GI50 (HOP-92 NSCLC) of 2.57 µM and a TGI (HOP-92 NSCLC) of 16.5 µM. The GI50 (HS 578T breast) was 12.6 µM, the TGI (HS 578T breast) was 39.4 µM and the GI50 (HT29 colon) was 13.2 µM. For the same compound, the TGI (HT29 colon) was 27 µM, the GI50 (IGROV1 ovarian) was 16 µM and the TGI (IGROV1 ovarian) was 34 µM. The GI50 (K-562 leukemia) was 13.6 µM, the TGI (K-562 leukemia) was 38.2 µM and the GI50 (KM12 colon) was 16 µM. The TGI (KM12 colon) was 31.3 µM, the GI50 (LOX IMVI melanoma) was 15 µM and the TGI (LOX IMVI melanoma) was 29.4 µM. For the same compound, the GI50 (M14 melanoma) was 15.2 µM, the TGI (M14 melanoma) was 31.1 µM and the GI50 (MALME-3M melanoma) was 13.9 µM. For the same compound, the TGI (MALME-3M melanoma) was 28.9 µM, the GI50 (MCF7 breast) was 18.3 µM and the TGI (MCF7 breast) was 34.5 µM. It also gave a GI50 (MDA-MB-231 breast) of 12.7 µM, a TGI (MDA-MB-231 breast) of 27.3 µM and a GI50 (MDA-MB-435) of 16.1 µM. For the same compound, the TGI (MDA-MB-435) was 30.9 µM, the GI50 (MOLT-4 leukemia) was 15 µM and the TGI (MOLT-4 leukemia) was 49.2 µM. It also gave a GI50 (NCI-H226 lung) of 16.5 µM and a TGI (NCI-H226 lung) of 35.3 µM.
